In publication PMC8878047 (Pharmaceutics, 2022):
Where two headings read alike, the source gives them in different places.

Legend:
[1] = Protocol: All tests were conducted in the animal experimental center of Guangxi Medical University. Preliminary experiments were needed before starting official tests. […] Groups of mice (n = 10 per group, half male and half female) received different doses of the tested compounds by gavage at the same single dose of drug solution, which was uniformed to be […] (drug solution)/10 g, but containing different concentration of tested drugs. […] We compared these mice with the control group in which the mice were not given drugs, according to the pre-experimental procedure. We closely observed the mice for 6 h after the gavage for signs of toxicity and mortality. As soon as death occurred among the maximum-dose group, we conducted an autopsy and took samples from the main organs for histopathological examination. In addition, we monitored all of the tested mice for 2 weeks to record their weight and mortality.
[2] = system: wild type AB strain zebrafish; details: 30 embryos per well
Protocol: Zebrafish were incubated and grown in the Joint Laboratory established by Shandong Rui’ying Pharmaceutical Group (Heze, China) and China Pharmaceutical University. Both the Wild-type AB (Danio rerio) and Tg(mpx:eGFP) zebrafish strains were maintained under the guidance of the standard procedures of The Zebrafish Book. […] Then the zebrafish were allowed to naturally mate and spawn the next morning. The normally born embryos were then collected after 1 h and kept in an incubating system at 28 °C. The 6 hpf (hour post fertilization) embryos were transferred into a 6-well plate exposed to 5 mL of egg water, in which 30 embryos were in each well.

[3] = system: neutrophil cluster aggregation; experiment: CuSO4-induced inflammation model in Tg(mpx:eGFP) zebrafish; details: 10 μM CuSO4 40 min, Tg(mpx:eGFP) 3 dpf
[4] = system: H2O2-induced ROS production; experiment: H2O2-induced oxidative stress model in zebrafish (DCFH-DA); details: 48 h pre-treatment, H2O2 1.0 mM 4 h, H2O2-induced 17,250, control 590
[5] = Pharmacokinetic study in plasma after oral administration (HPLC-MS); details: SD rats, plasma, EFX 10 mg/kg, EFX-Ca 12 mg/kg
[6] = system: E. coli; experiment: Quasi-clinical trial on E. coli-infected AA broilers (drug-mixed feeding); details: AA broilers
Protocol: (§1) Then, broilers were randomly and equally divided into five different groups and marked as five groups. […] Note that the daily drug-mixed feeding ratio (g drug/kg feed) was indicated for the first 4 h every day, and unmedicated feed then followed. In addition, E. coli strains for the infection of chicken was supplied as a freeze-dried powder. They were revived and cultured according to the standard procedures. The strain was inoculated into a liquid medium and cultured in a 37 °C incubator for 6–8 h. We detected the concentration of the bacterial liquid to be 2.8 × 10^8 CFU/mL as the pathogenic concentration. Finally, all of the chickens except the healthy control group were intramuscularly injected with 0.5 mL of pathogenic bacteria, and all chickens were fasted for 4 h. After successfully simulating the bacterial infection of the chickens, the drug-mixed feeding chickens were continuously fed for 6 d. During this time, we observed their behavioral habits, mortality, and recovery rates.

[7] = system: E. coli; experiment: Quasi-clinical trial on E. coli-infected 817 broilers (drug-mixed feeding); details: 817 broilers
Protocol: as §1

[8] = 0.01 μM medicated bath, 120 hpf

## CCN1CCN(c2cc3c(cc2F)c(=O)c(C(=O)O)cn3C2CC2)CC1 [EFX, enrofloxacin, reference compound]
[1]; 2000 mg/kg single gavage, Day-0
  Body Weight (g, x¯ ± SD): 18.35 ± 1.87 g
[1]; 2000 mg/kg single gavage, Day-1
  Body Weight (g, x¯ ± SD): 20.21 ± 2.06 g
[1]; 2000 mg/kg single gavage, Day-4
  Body Weight (g, x¯ ± SD): 25.19 ± 1.81 g
[1]; 2000 mg/kg single gavage, Day-7
  Body Weight (g, x¯ ± SD): 28.89 ± 1.99 g
[1]; 2000 mg/kg single gavage, Day-14
  Body Weight (g, x¯ ± SD): 36.93 ± 3.07 g
[1]; 3031 mg/kg single gavage, Day-0
  Body Weight (g, x¯ ± SD): 18.40 ± 1.78 g
[1]; 3031 mg/kg single gavage, Day-1
  Body Weight (g, x¯ ± SD): 19.20 ± 2.18 g
[1]; 3031 mg/kg single gavage, Day-4
  Body Weight (g, x¯ ± SD): 24.83 ± 3.08 g
[1]; 3031 mg/kg single gavage, Day-7
  Body Weight (g, x¯ ± SD): 29.17 ± 2.51 g
[1]; 3031 mg/kg single gavage, Day-14
  Body Weight (g, x¯ ± SD): 33.20 ± 4.46 g
[1]; 4595 mg/kg single gavage, Day-0
  Body Weight (g, x¯ ± SD): 18.67 ± 1.05 g
[1]; 4595 mg/kg single gavage, Day-1
  Body Weight (g, x¯ ± SD): 19.14 ± 0.96 g
[1]; 4595 mg/kg single gavage, Day-4
  Body Weight (g, x¯ ± SD): 23.54 ± 1.44 g
[1]; 4595 mg/kg single gavage, Day-7
  Body Weight (g, x¯ ± SD): 28.20 ± 1.52 g
[1]; 4595 mg/kg single gavage, Day-14
  Body Weight (g, x¯ ± SD): 33.96 ± 2.53 g
[1]; 6964 mg/kg single gavage, Day-0
  Body Weight (g, x¯ ± SD): 18.59 ± 1.34 g
[1]; 6964 mg/kg single gavage, Day-1
  Body Weight (g, x¯ ± SD): 19.68 ± 1.06 g
[1]; 6964 mg/kg single gavage, Day-4
  Body Weight (g, x¯ ± SD): 23.85 ± 1.88 g
[1]; 6964 mg/kg single gavage, Day-7
  Body Weight (g, x¯ ± SD): 27.98 ± 3.40 g
[1]; 6964 mg/kg single gavage, Day-14
  Body Weight (g, x¯ ± SD): 36.13 ± 5.35 g
[1]; 16,000 mg/kg single gavage, Day-0
  Body Weight (g, x¯ ± SD): 18.86 ± 1.03 g
[1]; 16,000 mg/kg single gavage, Day-1
  Body Weight (g, x¯ ± SD): 18.55 ± 1.70 g
[1]; 16,000 mg/kg single gavage, Day-7
  Body Weight (g, x¯ ± SD): 24.35 ± 2.63 g
[1]; 16,000 mg/kg single gavage, Day-14
  Body Weight (g, x¯ ± SD): 33.20 ± 4.00 g
[2]; 0.01 μM medicated bath, 24 hpf
  statistical death of the tested zebrafish: 6
  statistical survival of the tested zebrafish: 24
[2]; 0.01 μM medicated bath, 48 hpf
  statistical death of the tested zebrafish: 6
  statistical survival of the tested zebrafish: 24
[2]; 0.01 μM medicated bath, 72 hpf
  statistical death of the tested zebrafish: 6
  statistical survival of the tested zebrafish: 24
[2]; 0.01 μM medicated bath, 96 hpf
  statistical death of the tested zebrafish: 6
  statistical survival of the tested zebrafish: 24
[2]; [8]
  statistical death of the tested zebrafish: 6
  statistical survival of the tested zebrafish: 24
[2]; 0.1 μM medicated bath, 24 hpf
  statistical death of the tested zebrafish: 4
  statistical survival of the tested zebrafish: 26
[2]; 0.1 μM medicated bath, 48 hpf
  statistical death of the tested zebrafish: 4
  statistical survival of the tested zebrafish: 26
[2]; 0.1 μM medicated bath, 72 hpf
  statistical death of the tested zebrafish: 4
  statistical survival of the tested zebrafish: 26
[2]; 0.1 μM medicated bath, 96 hpf
  statistical death of the tested zebrafish: 4
  statistical survival of the tested zebrafish: 26
[2]; 0.1 μM medicated bath, 120 hpf
  statistical death of the tested zebrafish: 4
  statistical survival of the tested zebrafish: 26
[2]; 1 μM medicated bath, 24 hpf
  statistical death of the tested zebrafish: 2
  statistical survival of the tested zebrafish: 28
[2]; 1 μM medicated bath, 48 hpf
  statistical death of the tested zebrafish: 2
  statistical survival of the tested zebrafish: 28
[2]; 1 μM medicated bath, 72 hpf
  statistical death of the tested zebrafish: 2
  statistical survival of the tested zebrafish: 28
[2]; 1 μM medicated bath, 96 hpf
  statistical death of the tested zebrafish: 2
  statistical survival of the tested zebrafish: 28
[2]; 1 μM medicated bath, 120 hpf
  statistical death of the tested zebrafish: 2
  statistical survival of the tested zebrafish: 28
[2]; 10 μM medicated bath, 24 hpf
  statistical death of the tested zebrafish: 2
  statistical survival of the tested zebrafish: 28
[2]; 10 μM medicated bath, 48 hpf
  statistical death of the tested zebrafish: 2
  statistical survival of the tested zebrafish: 28
[2]; 10 μM medicated bath, 72 hpf
  statistical death of the tested zebrafish: 2
  statistical survival of the tested zebrafish: 28
[2]; 10 μM medicated bath, 96 hpf
  statistical death of the tested zebrafish: 2
  statistical survival of the tested zebrafish: 28
[2]; 10 μM medicated bath, 120 hpf
  statistical death of the tested zebrafish: 2
  statistical survival of the tested zebrafish: 28
[2]; 20 μM medicated bath, 24 hpf
  statistical death of the tested zebrafish: 4
  statistical survival of the tested zebrafish: 26
[2]; 20 μM medicated bath, 48 hpf
  statistical death of the tested zebrafish: 4
  statistical survival of the tested zebrafish: 26
[2]; 20 μM medicated bath, 72 hpf
  statistical death of the tested zebrafish: 4
  statistical survival of the tested zebrafish: 26
[2]; 20 μM medicated bath, 96 hpf
  statistical death of the tested zebrafish: 4
  statistical survival of the tested zebrafish: 26
[2]; 20 μM medicated bath, 120 hpf
  statistical death of the tested zebrafish: 4
  statistical survival of the tested zebrafish: 26
[3]; 0.1 μM pre-incubation 1 h
  CuSO4-induced neutrophil aggregation: still maintained obvious clustering status
[3]; 1 μM pre-incubation 1 h
  CuSO4-induced neutrophil aggregation: partial aggregations of the neutrophils could be observed
[4]; 0.01 μM
  Average IOD (integrated optical density) of green fluorescence: 970 a.u.
[4]; 0.1 μM
  Average IOD (integrated optical density) of green fluorescence: 772 a.u.
[4]; 1 μM
  Average IOD (integrated optical density) of green fluorescence: 848 a.u.
[5]
  Ke: 0.28
  t 1/2β: 2.43 H
[6]; EFX single dosage 11 g + 1.5 kg feed
  Average Final Weight: 1880 ± 113 g
[6]; EFX single dosage 11 g + 1.5 kg feed, Table 7
  Average Weight Gain: 380
[6]; EFX single dosage 11 g + 1.5 kg feed, Table 8
  Average Increment of Weight: 250 g
[6]; EFX single dosage 11 g drug (5% solution) + 1.5 kg feed/4 h, 6 d
  Cure Rate (%): 62%
[6]; EFX single dosage 11 g drug (5% solution) + 1.5 kg feed/4 h, 6 d, 50 per group
  Survival Number: 31
[7]; EFX single dosage 11 g + 0.75 kg feed
  Average Final Weight: 1030 ± 74 g
[7]; EFX single dosage 11 g + 0.75 kg feed, Table 7
  Average Weight Gain: 100
[7]; EFX single dosage 11 g + 0.75 kg feed, Table 8
  Average Increment of Weight: 140 g
[7]; EFX single dosage 11 g drug (5% solution) + 0.75 kg feed/4 h, 6 d
  Cure Rate (%): 64%
[7]; EFX single dosage 11 g drug (5% solution) + 0.75 kg feed/4 h, 6 d, 50 per group
  Survival Number: 32
